{"source": "patent US9533995B2", "about": "“Substituted N-heteroaryl spirolactam bipyrrolidines, preparation and therapeutic use thereof” (SANOFI, priority 2010, dated 2017)", "note": "Structures can show the parent of a compound that is named as a salt."}
{"target": "rhesus (Macacca Mulatta) H3 receptor (Macaca mulatta, UniProt Q865E1)", "sequence (Q865E1 1-445)": "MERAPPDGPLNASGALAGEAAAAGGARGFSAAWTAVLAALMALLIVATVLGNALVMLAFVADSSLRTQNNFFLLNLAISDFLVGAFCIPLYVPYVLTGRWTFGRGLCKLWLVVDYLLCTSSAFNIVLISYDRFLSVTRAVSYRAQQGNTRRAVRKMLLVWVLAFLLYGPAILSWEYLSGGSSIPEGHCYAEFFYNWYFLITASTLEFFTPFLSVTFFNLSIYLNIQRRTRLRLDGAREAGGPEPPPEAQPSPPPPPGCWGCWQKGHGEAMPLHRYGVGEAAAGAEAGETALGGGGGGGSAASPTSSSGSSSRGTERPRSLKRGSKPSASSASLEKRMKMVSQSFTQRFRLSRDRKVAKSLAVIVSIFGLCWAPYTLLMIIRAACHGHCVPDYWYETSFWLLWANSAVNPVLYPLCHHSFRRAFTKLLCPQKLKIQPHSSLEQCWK", "assay": "Rhesus H3 radioligand binding assay ([3H]-Methylhistamine displacement, WGA SPA beads)", "design": "species or system rhesus monkey (Macacca Mulatta)", "details": "[3H]-Methylhistamine 2 nM, rhesus H3 membranes, 25° C., 1 hour; Cheng-Prusoff", "method": "Rhesus H3 membranes were prepared from the Flp-In T-REx 293 Cell Line (Invitrogen) stably transfected with pcDNA5/FRT/TO (Invitrogen) containing the rhesus monkey (Macacca Mulatta) 445 amino acid H3 receptor. (Genbank #AY231164). Stably transfected cultures were amplified in tissue culture flasks by standard tissue culture methods and induced to express rhesus H3 by exposure to 500 ng/ml tetracycline (Cellgro) for 24 hours. After induction, cells were dissociated from flasks utilizing Cell Stripper (Cellgro). Cells were centrifuged (1K×g, 5 min) and pellet frozen in an ethanol-dry ice bath to disrupt cell membranes. Frozen cell pellet was re-suspended in 5 mM HEPES (pH 7.4, Invitrogen) at 10 ml/1000 cm2 of harvested cells. The cell suspension was drawn through an 18 gauge needle (2-3×) followed by a 23 gauge needle (2-3×) to further disrupt cell membranes. The cell suspension was centrifuged (40K×g, 30 min). Cell membrane pellet was re-suspended in 5 mM HEPES (pH 7.4, Invitrogen) at a final protein concentration of 10 mg/ml. Rhesus H3 membranes were stored under liquid nitrogen prior to use in [3H]-Methylhistamine and GTPγS radioligand binding assays.\nRhesus H3 radioligand binding assay was performed using rhesus H3 receptor membranes (prepared as described above), [3H]-Methylhistamine (Perkin Elmer) and WGA SPA beads (wheat germ agglutinin scintillation proximity assay) beads (Amersham). The assay was performed in 96-well Opti-Plates (Packard). Each reaction contained 50 μl rhesus H3 membranes (20-30 μg total protein), 50 μl WGA SPA beads (0.1 μg) and 50 μl of 83 Ci/mmol [^3H]-Methylhistamine (final concentration 2 nM) and 50 μl of tested compound. The compounds of this invention and/or vehicle were diluted with binding buffer from 10 mM DMSO stocks. Assay plates were sealed with TopSeal (Perkin Elmer) and mixed on shaker (25° C., 1 hour). Assay plates were read on TopCount scintillation counter (Packard). Results were analyzed by Hill transformation and Ki values were determined by Cheng-Prusoff equation.", "units": {"Ki": "µM"}}
{"smiles": "Cc1nc(N2CC[C@@H](N3CCC[C@@H]3C)C2)ccc1N1CCC2(CCOCC2)C1=O", "note": "[Example 1, 2-[2-Methyl-6-((2S,3′R)-2-methyl-[1,3′]bipyrrolidinyl-1′-yl)-pyridin-3-yl]-8-oxa-2-aza-spiro[4.5]decan-1-one]", "Ki": 0.0376}
{"smiles": "Cc1nc(N2CC[C@@H](N3CCC[C@@H]3C)C2)ccc1N1CCCC2(CCOCC2)C1=O", "note": "[Example 2, 2-[2-Methyl-6-((2S,3′R)-2-methyl-[1,3′]bipyrrolidinyl-1′-yl)-pyridin-3-yl]-9-oxa-2-aza-spiro[5.5]undecan-1-one]", "Ki": 0.0951}
{"smiles": "Cc1nc(N2CC[C@@H](N3CCC[C@@H]3C)C2)ccc1N1CCC2(CCC(O)CC2)C1=O", "note": "(stereo partly drawn) [Example 5, 8-Hydroxy-2-[2-methyl-6-((2S,3′R)-2-methyl-[1,3′]bipyrrolidinyl-1′-yl)-pyridin-3-yl]-2-aza-spiro[4.5]decan-1-one]", "Ki": 0.267}
{"smiles": "Cc1nc(N2CC[C@@H](N3CCC[C@@H]3C)C2)ccc1N1CCC2(CCCCC2)C1=O", "note": "[Example 6, 2-[2-Methyl-6-((2S,3′R)-2-methyl-[1,3′]bipyrrolidinyl-1′-yl)-pyridin-3-yl]-2-aza-spiro[4.5]decan-1-one]", "Ki": 0.0565}
{"smiles": "Cc1nc(N2CC[C@H](N3CCC[C@@H]3C)C2)ccc1N1CCC2(CCOCC2)C1=O", "note": "[Example 7, 2-[2-Methyl-6-((2S,3′S)-2-methyl-[1,3′]bipyrrolidinyl-1′-yl)-pyridin-3-yl]-8-oxa-2-aza-spiro[4.5]decan-1-one]", "Ki": 0.0071}
{"smiles": "Cc1nc(N2CC[C@@H](N3CCC[C@@H]3C)C2)ccc1N1CCC2(CCNCC2)C1=O", "note": "[Example 8, 2-[2-Methyl-6-((2S,3′R)-2-methyl-[1,3′]bipyrrolidinyl-1′-yl)-pyridin-3-yl]-2,8-diaza-spiro[4.5]decan-1-one hydrochloride]", "Ki": 0.0175}
{"smiles": "Cc1nc(N2CC[C@@H](N3CCC[C@@H]3C)C2)ccc1N1CCCC2(CCNCC2)C1=O", "note": "[Example 9, 2-[2-Methyl-6-((2S,3′R)-2-methyl-[1,3′]bipyrrolidinyl-1′-yl)-pyridin-3-yl]-2,9-diaza-spiro[5.5]undecan-1-one hydrochloride]", "Ki": 0.0389}
{"smiles": "C[C@H]1CCCN1[C@H]1CCN(c2cnc(N3CCC4(CCNCC4)C3=O)cn2)C1", "note": "[Example 10, 2-[5-((2S,3′S)-2-Methyl-[1,3′]bipyrrolidinyl-1′-yl)-pyrazin-2-yl]-2,8-diaza-spiro[4.5]decan-1-one]", "Ki": 0.0263}
{"smiles": "Cc1nc(N2CC[C@H](N3CCC[C@@H]3C)C2)ccc1N1CCC2(CCNCC2)C1=O", "note": "[Example 11, 2-[2-Methyl-6-((2S,3′S)-2-methyl-[1,3′]bipyrrolidinyl-1′-yl)-pyridin-3-yl]-2,8-diaza-spiro[4.5]decan-1-one]", "Ki": 0.00757}
{"smiles": "C[C@H]1CCCN1[C@H]1CCN(c2ncc(N3CCC4(CCN(C(=O)OC(C)(C)C)CC4)C3=O)cn2)C1", "note": "[Example 12, 2-[2-((2S,3′S)-2-Methyl-[1,3′]bipyrrolidinyl-1′-yl)-pyrimidin-5-yl]-1-oxo-2,8-diaza-spiro[4.5]decane-8-carboxylic acid tert-butyl ester]", "Ki": 0.0485}
{"smiles": "C[C@H]1CCCN1[C@H]1CCN(c2ccc(N3CCC4(CCOCC4)C3=O)nc2)C1", "note": "[Example 13, 2-[5-((2S,3′S)-2-Methyl-[1,3′]bipyrrolidinyl-1′-yl)-pyridin-2-yl]-8-oxa-2-aza-spiro[4.5]decan-1-one]", "Ki": 0.0223}
{"smiles": "C[C@H]1CCCN1[C@H]1CCN(c2cnc(N3CCC4(CCN(C(=O)OC(C)(C)C)CC4)C3=O)cn2)C1", "note": "[Example 14, 2-[5-((2S,3′S)-2-Methyl-[1,3′]bipyrrolidinyl-1′-yl)-pyrazin-2-yl]-1-oxo-2,8-diaza-spiro[4.5]decane-8-carboxylic acid tert-butyl ester]", "Ki": 0.105}
{"smiles": "Cc1nc(N2CC[C@H](N3CCC[C@@H]3C)C2)ccc1N1CCC2(CCN(C(=O)OC(C)(C)C)CC2)C1=O", "note": "[Example 15, 2-[2-Methyl-6-((2S,3′S)-2-methyl-[1,3′]bipyrrolidinyl-1′-yl)-pyridin-3-yl]-1-oxo-2,8-diaza-spiro[4.5]decane-8-carboxylic acid tert-butyl ester]", "Ki": 0.0955}
{"smiles": "C[C@H]1CCCN1[C@H]1CCN(c2ncc(N3CCC4(CCOCC4)C3=O)cn2)C1", "note": "[Example 16, 2-[2-((2S,3′S)-2-Methyl-[1,3′]bipyrrolidinyl-1′-yl)-pyrimidin-5-yl]-8-oxa-2-aza-spiro[4.5]decan-1-one]", "Ki": 0.00421}
